Source: BigSolDB 2.1

Cn1cnc([N+](=O)[O-])c1Cl
Details | solubility (mole fraction)
in 1,4-dioxane, 283.15 K | 0.00714
in 1,4-dioxane, 285.65 K | 0.00797
in 1,4-dioxane, 288.15 K | 0.00882
in 1,4-dioxane, 290.65 K | 0.00986
in 1,4-dioxane, 293.15 K | 0.0109
in 1,4-dioxane, 295.65 K | 0.0119
in 1,4-dioxane, 298.15 K | 0.0129
in 1,4-dioxane, 300.65 K | 0.014
in 1,4-dioxane, 303.15 K | 0.0151
in 1,4-dioxane, 305.65 K | 0.0161
in 1,4-dioxane, 308.15 K | 0.0173
in 1,4-dioxane, 310.65 K | 0.0186
in 1,4-dioxane, 313.15 K | 0.0198
in 1,4-dioxane, 315.65 K | 0.021
in 1,4-dioxane, 318.15 K | 0.0225
in 2-butanone, 283.15 K | 0.0145
in 2-butanone, 285.65 K | 0.016
in 2-butanone, 288.15 K | 0.0176
in 2-butanone, 290.65 K | 0.0194
in 2-butanone, 293.15 K | 0.0214
in 2-butanone, 295.65 K | 0.0235
in 2-butanone, 298.15 K | 0.0259
in 2-butanone, 300.65 K | 0.0282
in 2-butanone, 303.15 K | 0.0308
in 2-butanone, 305.65 K | 0.0335
in 2-butanone, 308.15 K | 0.0368
in 2-butanone, 310.65 K | 0.04
in 2-butanone, 313.15 K | 0.0434
in 2-butanone, 315.65 K | 0.0474
in 2-butanone, 318.15 K | 0.0512
in NMP, 283.15 K | 0.157
in NMP, 285.65 K | 0.162
in NMP, 288.15 K | 0.168
in NMP, 290.65 K | 0.174
in NMP, 293.15 K | 0.181
in NMP, 295.65 K | 0.188
in NMP, 298.15 K | 0.195
in NMP, 300.65 K | 0.202
in NMP, 303.15 K | 0.209
in NMP, 305.65 K | 0.217
in NMP, 308.15 K | 0.224
in NMP, 310.65 K | 0.233
in NMP, 313.15 K | 0.242
in NMP, 315.65 K | 0.252
in NMP, 318.15 K | 0.261
in acetone, 283.15 K | 0.0181
in acetone, 285.65 K | 0.0202
in acetone, 288.15 K | 0.0222
in acetone, 290.65 K | 0.0248
in acetone, 293.15 K | 0.027
in acetone, 295.65 K | 0.0299
in acetone, 298.15 K | 0.0326
in acetone, 300.65 K | 0.0358
in acetone, 303.15 K | 0.0391
in acetone, 305.65 K | 0.0426
in acetone, 308.15 K | 0.0465
in acetone, 310.65 K | 0.0508
in acetone, 313.15 K | 0.0555
in acetone, 315.65 K | 0.06
in acetone, 318.15 K | 0.0656
in chloroform, 283.15 K | 0.0132
in chloroform, 285.65 K | 0.0142
in chloroform, 288.15 K | 0.0156
in chloroform, 290.65 K | 0.017
in chloroform, 293.15 K | 0.0185
in chloroform, 295.65 K | 0.0201
in chloroform, 298.15 K | 0.0219
in chloroform, 300.65 K | 0.0236
in chloroform, 303.15 K | 0.0255
in chloroform, 305.65 K | 0.0276
in chloroform, 308.15 K | 0.0298
in chloroform, 310.65 K | 0.0322
in chloroform, 313.15 K | 0.0345
in chloroform, 315.65 K | 0.0372
in chloroform, 318.15 K | 0.0399
in ethanol, 283.15 K | 0.00218
in ethanol, 285.65 K | 0.00235
in ethanol, 288.15 K | 0.00259
in ethanol, 290.65 K | 0.00283
in ethanol, 293.15 K | 0.00313
in ethanol, 295.65 K | 0.00347
in ethanol, 298.15 K | 0.00381
in ethanol, 300.65 K | 0.00417
in ethanol, 303.15 K | 0.00456
in ethanol, 305.65 K | 0.00497
in ethanol, 308.15 K | 0.00539
in ethanol, 310.65 K | 0.00587
in ethanol, 313.15 K | 0.00643
in ethanol, 315.65 K | 0.00705
in ethanol, 318.15 K | 0.00784
in ethyl acetate, 283.15 K | 0.00846
in ethyl acetate, 285.65 K | 0.00911
in ethyl acetate, 288.15 K | 0.00983
in ethyl acetate, 290.65 K | 0.0108
in ethyl acetate, 293.15 K | 0.0118
in ethyl acetate, 295.65 K | 0.0128
in ethyl acetate, 298.15 K | 0.0139
in ethyl acetate, 300.65 K | 0.015
in ethyl acetate, 303.15 K | 0.0162
in ethyl acetate, 305.65 K | 0.0177
in ethyl acetate, 308.15 K | 0.0191
in ethyl acetate, 310.65 K | 0.0204
in ethyl acetate, 313.15 K | 0.0218
in ethyl acetate, 315.65 K | 0.0235
in ethyl acetate, 318.15 K | 0.0253
in isopropanol, 283.15 K | 0.00108
in isopropanol, 285.65 K | 0.00125
in isopropanol, 288.15 K | 0.00142
in isopropanol, 290.65 K | 0.00158
in isopropanol, 293.15 K | 0.00176
in isopropanol, 295.65 K | 0.00195
in isopropanol, 298.15 K | 0.00219
in isopropanol, 300.65 K | 0.00247
in isopropanol, 303.15 K | 0.00278
in isopropanol, 305.65 K | 0.00313
in isopropanol, 308.15 K | 0.00352
in isopropanol, 310.65 K | 0.00408
in isopropanol, 313.15 K | 0.00468
in isopropanol, 315.65 K | 0.00533
in isopropanol, 318.15 K | 0.00593
in methanol, 283.15 K | 0.0028
in methanol, 285.65 K | 0.00316
in methanol, 288.15 K | 0.00349
in methanol, 290.65 K | 0.00385
in methanol, 293.15 K | 0.0042
in methanol, 295.65 K | 0.0046
in methanol, 298.15 K | 0.00506
in methanol, 300.65 K | 0.00554
in methanol, 303.15 K | 0.00603
in methanol, 305.65 K | 0.00651
in methanol, 308.15 K | 0.00699
in methanol, 310.65 K | 0.00756
in methanol, 313.15 K | 0.00811
in methanol, 315.65 K | 0.0087
in methanol, 318.15 K | 0.00936
in n-propanol, 283.15 K | 0.00152
in n-propanol, 285.65 K | 0.00168
in n-propanol, 288.15 K | 0.00187
in n-propanol, 290.65 K | 0.00208
in n-propanol, 293.15 K | 0.00232
in n-propanol, 295.65 K | 0.00258
in n-propanol, 298.15 K | 0.00282
in n-propanol, 300.65 K | 0.00308
in n-propanol, 303.15 K | 0.00342
in n-propanol, 305.65 K | 0.0038
in n-propanol, 308.15 K | 0.00418
in n-propanol, 310.65 K | 0.00468
in n-propanol, 313.15 K | 0.00522
in n-propanol, 315.65 K | 0.00592
in n-propanol, 318.15 K | 0.0066
in toluene, 283.15 K | 0.00194
in toluene, 285.65 K | 0.00208
in toluene, 288.15 K | 0.00228
in toluene, 290.65 K | 0.00248
in toluene, 293.15 K | 0.00272
in toluene, 295.65 K | 0.00298
in toluene, 298.15 K | 0.00325
in toluene, 300.65 K | 0.00358
in toluene, 303.15 K | 0.0039
in toluene, 305.65 K | 0.00428
in toluene, 308.15 K | 0.00468
in toluene, 310.65 K | 0.00518
in toluene, 313.15 K | 0.00568
in toluene, 315.65 K | 0.00622
in toluene, 318.15 K | 0.00683
